# Source: ChEMBL document CHEMBL1158892, “Cationic reduction of bastadin-4 to bastadin-5. Preparation of 5-[2h]-bastadin-5 by site-specific isotopic labeling” (J Nat Prod, 2003)
# Target: Ryanodine receptor 1 (Homo sapiens) (UniProt P21817)
# Experiment: Displacement of [3H]ryanodine from RyR1 calcium channel in sarcoplasmic reticulum assessed as calcium mobilization
# Chain of Ryanodine receptor 1 (Homo sapiens) (P21817 whole entry): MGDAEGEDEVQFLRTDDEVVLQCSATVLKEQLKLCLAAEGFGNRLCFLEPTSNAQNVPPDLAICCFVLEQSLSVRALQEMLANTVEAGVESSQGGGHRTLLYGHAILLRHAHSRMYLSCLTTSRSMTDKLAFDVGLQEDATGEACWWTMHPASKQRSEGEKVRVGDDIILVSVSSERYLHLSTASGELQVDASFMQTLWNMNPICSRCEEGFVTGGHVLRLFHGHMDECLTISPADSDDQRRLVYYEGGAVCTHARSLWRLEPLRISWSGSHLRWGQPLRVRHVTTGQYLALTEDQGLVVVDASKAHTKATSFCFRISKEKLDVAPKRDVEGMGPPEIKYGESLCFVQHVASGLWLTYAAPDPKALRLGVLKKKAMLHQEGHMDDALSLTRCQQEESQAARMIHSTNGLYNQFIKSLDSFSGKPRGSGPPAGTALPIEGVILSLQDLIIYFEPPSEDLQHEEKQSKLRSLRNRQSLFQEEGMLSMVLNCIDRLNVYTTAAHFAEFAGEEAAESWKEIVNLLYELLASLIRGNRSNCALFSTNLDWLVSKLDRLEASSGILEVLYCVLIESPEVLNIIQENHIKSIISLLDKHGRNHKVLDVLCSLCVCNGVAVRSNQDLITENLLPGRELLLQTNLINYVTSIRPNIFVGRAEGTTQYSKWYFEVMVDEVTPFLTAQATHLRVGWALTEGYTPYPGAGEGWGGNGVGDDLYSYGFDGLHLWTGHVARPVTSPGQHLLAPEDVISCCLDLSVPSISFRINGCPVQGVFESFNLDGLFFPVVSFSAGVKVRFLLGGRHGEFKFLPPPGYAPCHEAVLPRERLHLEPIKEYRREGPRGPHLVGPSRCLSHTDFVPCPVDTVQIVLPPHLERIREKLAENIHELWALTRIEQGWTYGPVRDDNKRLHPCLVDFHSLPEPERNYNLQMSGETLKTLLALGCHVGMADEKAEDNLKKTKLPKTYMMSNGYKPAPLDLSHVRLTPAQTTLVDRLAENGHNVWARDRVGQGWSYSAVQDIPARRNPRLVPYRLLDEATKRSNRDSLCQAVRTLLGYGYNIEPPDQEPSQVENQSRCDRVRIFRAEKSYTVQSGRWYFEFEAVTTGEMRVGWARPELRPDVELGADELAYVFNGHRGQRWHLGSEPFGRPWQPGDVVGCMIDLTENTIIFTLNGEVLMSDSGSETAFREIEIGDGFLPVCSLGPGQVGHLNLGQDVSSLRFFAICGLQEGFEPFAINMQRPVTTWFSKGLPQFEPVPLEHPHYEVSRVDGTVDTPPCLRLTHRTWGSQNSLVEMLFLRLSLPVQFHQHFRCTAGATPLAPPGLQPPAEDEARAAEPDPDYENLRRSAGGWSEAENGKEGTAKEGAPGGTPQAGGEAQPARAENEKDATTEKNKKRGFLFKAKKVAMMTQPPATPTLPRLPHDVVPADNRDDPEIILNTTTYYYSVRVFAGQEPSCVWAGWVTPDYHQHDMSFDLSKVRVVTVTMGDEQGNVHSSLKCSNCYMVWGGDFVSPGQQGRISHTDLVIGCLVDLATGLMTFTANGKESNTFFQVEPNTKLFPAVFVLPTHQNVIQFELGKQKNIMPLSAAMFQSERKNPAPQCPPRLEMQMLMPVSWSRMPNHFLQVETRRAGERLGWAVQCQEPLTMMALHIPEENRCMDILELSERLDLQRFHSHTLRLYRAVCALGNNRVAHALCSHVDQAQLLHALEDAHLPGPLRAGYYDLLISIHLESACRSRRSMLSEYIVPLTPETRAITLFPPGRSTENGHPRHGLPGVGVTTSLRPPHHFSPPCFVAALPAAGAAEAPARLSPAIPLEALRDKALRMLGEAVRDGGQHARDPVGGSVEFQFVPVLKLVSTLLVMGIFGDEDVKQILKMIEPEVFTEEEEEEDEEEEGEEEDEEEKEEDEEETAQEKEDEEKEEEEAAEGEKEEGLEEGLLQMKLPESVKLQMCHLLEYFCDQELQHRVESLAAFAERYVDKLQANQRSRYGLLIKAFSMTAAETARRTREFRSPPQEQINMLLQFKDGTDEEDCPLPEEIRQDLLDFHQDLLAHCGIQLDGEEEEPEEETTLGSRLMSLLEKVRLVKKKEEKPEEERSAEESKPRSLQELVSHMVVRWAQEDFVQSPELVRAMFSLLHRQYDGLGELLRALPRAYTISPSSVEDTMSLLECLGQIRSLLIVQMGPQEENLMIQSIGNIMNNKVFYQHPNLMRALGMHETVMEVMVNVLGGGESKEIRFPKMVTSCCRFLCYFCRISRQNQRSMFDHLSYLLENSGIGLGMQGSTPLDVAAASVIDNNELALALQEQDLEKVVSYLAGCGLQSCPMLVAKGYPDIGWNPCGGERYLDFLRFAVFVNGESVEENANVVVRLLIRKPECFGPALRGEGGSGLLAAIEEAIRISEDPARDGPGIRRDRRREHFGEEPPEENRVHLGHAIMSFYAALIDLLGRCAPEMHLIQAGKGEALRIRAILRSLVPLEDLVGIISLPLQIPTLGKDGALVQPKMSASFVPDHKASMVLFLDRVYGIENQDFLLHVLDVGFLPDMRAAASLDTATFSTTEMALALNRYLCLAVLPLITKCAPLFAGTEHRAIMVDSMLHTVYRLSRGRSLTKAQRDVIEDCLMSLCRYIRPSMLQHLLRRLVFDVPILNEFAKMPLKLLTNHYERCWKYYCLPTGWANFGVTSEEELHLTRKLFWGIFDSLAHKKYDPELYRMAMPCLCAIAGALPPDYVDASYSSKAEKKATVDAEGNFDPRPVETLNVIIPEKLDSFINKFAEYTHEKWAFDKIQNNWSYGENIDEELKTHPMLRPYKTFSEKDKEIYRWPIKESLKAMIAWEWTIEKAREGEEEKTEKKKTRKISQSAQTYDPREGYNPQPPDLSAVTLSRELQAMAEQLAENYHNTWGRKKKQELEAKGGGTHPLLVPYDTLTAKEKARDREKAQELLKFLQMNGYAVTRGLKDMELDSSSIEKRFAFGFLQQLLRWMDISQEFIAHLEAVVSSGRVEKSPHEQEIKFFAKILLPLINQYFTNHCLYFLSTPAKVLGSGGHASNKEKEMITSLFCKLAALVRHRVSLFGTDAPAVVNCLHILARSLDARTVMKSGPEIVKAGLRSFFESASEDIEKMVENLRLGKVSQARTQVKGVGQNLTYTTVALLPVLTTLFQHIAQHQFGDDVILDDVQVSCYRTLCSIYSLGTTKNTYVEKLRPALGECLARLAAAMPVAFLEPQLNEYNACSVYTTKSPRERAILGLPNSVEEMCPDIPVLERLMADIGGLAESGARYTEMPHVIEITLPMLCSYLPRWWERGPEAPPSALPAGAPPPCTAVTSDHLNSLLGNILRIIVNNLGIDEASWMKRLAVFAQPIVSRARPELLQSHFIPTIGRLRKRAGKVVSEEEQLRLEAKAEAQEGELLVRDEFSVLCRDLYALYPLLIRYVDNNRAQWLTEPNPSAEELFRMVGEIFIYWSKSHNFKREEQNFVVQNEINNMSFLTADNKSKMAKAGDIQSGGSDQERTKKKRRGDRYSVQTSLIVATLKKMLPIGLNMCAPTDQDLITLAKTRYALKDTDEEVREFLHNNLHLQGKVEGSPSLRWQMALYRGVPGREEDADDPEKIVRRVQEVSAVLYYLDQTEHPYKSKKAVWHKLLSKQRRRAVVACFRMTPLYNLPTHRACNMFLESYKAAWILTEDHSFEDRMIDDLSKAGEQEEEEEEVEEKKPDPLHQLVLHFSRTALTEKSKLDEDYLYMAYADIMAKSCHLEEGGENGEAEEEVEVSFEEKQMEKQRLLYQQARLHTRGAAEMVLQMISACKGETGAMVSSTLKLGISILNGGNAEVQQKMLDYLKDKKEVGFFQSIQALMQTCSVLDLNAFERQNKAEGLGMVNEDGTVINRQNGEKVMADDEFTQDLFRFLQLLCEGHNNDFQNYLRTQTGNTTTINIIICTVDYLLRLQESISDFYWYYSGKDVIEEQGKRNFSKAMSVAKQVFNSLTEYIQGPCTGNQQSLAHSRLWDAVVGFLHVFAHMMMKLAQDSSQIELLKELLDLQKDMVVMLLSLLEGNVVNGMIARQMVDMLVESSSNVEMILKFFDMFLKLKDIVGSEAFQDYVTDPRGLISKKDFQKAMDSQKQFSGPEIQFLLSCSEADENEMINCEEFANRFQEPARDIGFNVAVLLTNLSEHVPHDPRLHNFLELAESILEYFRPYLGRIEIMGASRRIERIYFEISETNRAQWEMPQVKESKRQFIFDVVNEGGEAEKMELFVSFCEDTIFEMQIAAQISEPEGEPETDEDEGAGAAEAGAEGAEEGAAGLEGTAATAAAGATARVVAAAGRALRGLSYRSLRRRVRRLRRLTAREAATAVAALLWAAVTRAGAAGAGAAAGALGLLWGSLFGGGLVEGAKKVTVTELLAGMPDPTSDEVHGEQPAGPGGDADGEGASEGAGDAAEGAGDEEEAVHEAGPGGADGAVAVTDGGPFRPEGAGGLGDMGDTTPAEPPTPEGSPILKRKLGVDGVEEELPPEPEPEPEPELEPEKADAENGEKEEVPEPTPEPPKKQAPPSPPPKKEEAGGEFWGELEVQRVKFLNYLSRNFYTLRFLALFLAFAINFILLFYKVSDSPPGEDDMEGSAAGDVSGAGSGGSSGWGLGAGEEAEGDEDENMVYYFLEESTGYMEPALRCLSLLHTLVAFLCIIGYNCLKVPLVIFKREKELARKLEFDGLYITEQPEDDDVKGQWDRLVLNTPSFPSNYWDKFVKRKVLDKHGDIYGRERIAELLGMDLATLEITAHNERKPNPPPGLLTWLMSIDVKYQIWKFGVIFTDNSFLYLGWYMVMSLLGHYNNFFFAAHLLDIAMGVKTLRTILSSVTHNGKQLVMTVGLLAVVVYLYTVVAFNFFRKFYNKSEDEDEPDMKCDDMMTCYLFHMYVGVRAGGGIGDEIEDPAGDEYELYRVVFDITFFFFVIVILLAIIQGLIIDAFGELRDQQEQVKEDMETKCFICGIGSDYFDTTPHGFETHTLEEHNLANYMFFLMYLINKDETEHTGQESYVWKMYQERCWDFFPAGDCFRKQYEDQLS
compound,measurement,value
O=C1NCCc2cc(Br)c(O)c(c2)Oc2ccc(cc2Br)CCNC(=O)/C(=N\O)Cc2cc(Br)c(O)c(c2)Oc2c(Br)cc(cc2Br)C/C1=N/O,ED50,2.3 µM
